Results on 5 compounds are retold here after patent US11390644B2, “Raman tag” (Purdue Research Foundation, priority 2014, dated 2022).

As a reminder, the IC50 is the concentration that inhibits the measured activity by half.

“Also recorded” adds a separate entry of the source.

In one data set the target is T1, ACAT-1 (Cricetulus griseus, UniProt Q60457).
T1 construct: endogenous in cells; host or cells: CHO-K1 cells
T1 sequence (Q60457 1-546): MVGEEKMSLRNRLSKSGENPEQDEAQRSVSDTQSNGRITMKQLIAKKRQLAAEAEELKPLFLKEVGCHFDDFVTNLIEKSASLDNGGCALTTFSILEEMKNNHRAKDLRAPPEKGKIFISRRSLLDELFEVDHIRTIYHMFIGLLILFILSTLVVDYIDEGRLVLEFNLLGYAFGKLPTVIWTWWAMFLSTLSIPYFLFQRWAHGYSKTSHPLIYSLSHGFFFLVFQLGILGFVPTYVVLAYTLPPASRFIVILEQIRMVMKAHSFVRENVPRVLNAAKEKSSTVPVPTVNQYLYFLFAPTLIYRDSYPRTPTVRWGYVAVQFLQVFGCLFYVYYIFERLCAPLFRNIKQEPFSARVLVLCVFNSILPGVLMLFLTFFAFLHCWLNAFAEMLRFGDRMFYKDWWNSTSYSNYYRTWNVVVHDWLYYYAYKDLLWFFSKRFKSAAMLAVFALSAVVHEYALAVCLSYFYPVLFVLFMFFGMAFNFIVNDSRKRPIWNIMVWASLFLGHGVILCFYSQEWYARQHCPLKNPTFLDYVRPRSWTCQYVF
The data set can be described thus: ACAT-1 inhibition (avasimibe) blocking probe storage into lipid droplets. Format: cell-based, Chinese hamster. The settings on record: CHO cells. The procedure: (§1) It is hypothesized that PhDY-Chol is converted into PhDY-cholesteryl ester, by ACAT-1, the enzyme responsible for cholesterol esterification, as diagrammed in FIG. 4. To confirm the esterification of PhDY-Chol, we inhibited ACAT-1 with avasimibe for 24 h before addition of PhDY-Chol. […] Although LDs were still visible, the amount of PhDY-Chol signal found inside LDs reduced by 4 times (FIG. 4d). […] To determine where PhDY-Chol accumulates after ACAT-1 inhibition, we stained the cells with LysoTracker for lysosomes. […] To emphasize the physiological compatibility of our PhDY tag, we treated CHO cells with BODIPY-cholesterol.
as §1, with “important to note that PhDY-Chol-rich structures inside the CHO cells could not be stained by filipin (FIG. 10b), implicating that it is not in the free form. We hypothesize” for “hypothesized”, “esterification (FIG. 4b).” for “esterification, as diagrammed in FIG. 4.”
ACAT-1 inhibition was used to block cholesterol esterification either by adding a potent ACAT inhibitor, avasimibe, or by RNA interference with ACAT-1 shRNA plasmid. […]
(§2) To quantify PhDY-rich area, we first selected one cell and used “Threshold” function to select PhDY-rich cellular regions using ImageJ. […] To quantify PhDY-rich LDs, “Image Calculator” function in ImageJ was used to multiply SRS image of PhDY-Chol by TPEF image of BODIPY. Then, after using “Threshold” function to select PhDY-rich LDs, the number of PhDY-rich LDs was counted by “Analyze Particles” function. For each group, 7 cells were analyzed, and results were shown as mean±standard deviation (SD). […]

Data set [1] in a line: Photostability under continuous SRS / TPEF image acquisition. The data set is classed as physicochemical. The settings on record: 50 mM solution, acquired continuously for 150 s, one acquisition every 30 s. The procedure: FIG. 14. The photostability of PhDY-Chol and the photo-bleaching of BODIPY-Chol. The SRS images of 50 mM PhDY-Chol solution and TPEF images of 50 mM BODIPY-Chol solution were acquired continuously for 150 s (one acquisition every 30 s).

The test system of data set [2] is CHO cells. The data set can be described thus: MTT cell-viability assay of tagged cholesterols. Format: cell-based, Chinese hamster. The procedure: (§3) Referring now to FIG. 3, the cytotoxicity of cholesterol mimics was evaluated by MTT cell-viability assays after treating CHO cells with cholesterol mimic. Various concentrations of cholesterol mimic were added to the culture media and the cells were incubated for 48 hours before the assays were conducted. […] Adding a phenyl group reduced the cytotoxicity. To directly visualize the toxic effect, we stained the cells with propidium iodide for late apoptosis and necrosis.
(§4) To evaluate the cytotoxicity of tagged cholesterols, we performed MTT cell-viability assays after treating CHO cells with tagged cholesterol. […] To directly visualize the toxic effect, we stained the cells with propidium iodide for late apoptosis and necrosis. […] Based on the signal level and the severity of toxicity, we conclude that PhDY-Chol is the most suitable cholesterol probe for live cell imaging, and we used PhDY-Chol in subsequent experiments.
(§5) CHO cells were grown in 96-well plates with density of 4000 cells per well. The next day, the cells were treated with each cholesterol probe at the indicated concentrations for 48 h. Cell-viability was measured with the MTT colorimetric assay (Sigma).
On the technique in general: Tetrazolium dyes change colour on reduction, which living cells bring about.

Data set [3] deals with CHO cells. The data set can be described thus: Propidium iodide staining for late apoptosis and necrosis. Format: cell-based, Chinese hamster. The following applies: 30 μM, 24 h. The procedure:
as §3
as §4, with “cholesterol. Various concentrations of tagged cholesterol were added to the culture media and the cells were incubated for 48 h before the assays were conducted.” for “cholesterol.”
Propidium iodide was used to stain late apoptotic or necrotic cells. CHO cells were incubated with 30 μM of tagged cholesterol molecules for 24 h. The propidium iodide staining was performed following protocols provided by the manufacturer (Life Technologies).

A short description of data set [4]: MTT cell-viability assay of tagged cholesterols. Format: cell-based, Chinese hamster. The following applies: Chinese hamster; CHO cells, 48 h incubation; read-out: IC50 (cytotoxicity, MTT cell viability). The procedure:
as §3, §4, §5

The next data set relates to M12 cells. The data set can be described thus: HPβCD treatment of PhDY-Chol-labeled M12 cells. Format: cell-based, Chinese hamster. The following applies: HPβCD 500 μM, 30 h.
Description: We then treated the PhDY-Chol-labeled M12 cells with a cholesterol-mobilizing drug, hydroxypropyl-β-cyclodextrin (HPβCD). This drug is known to mediate lysosomal escape of cholesterol, and promote storage of excess cholesterol into LDs. […] These areas likely represent PhDY-cholesteryl ester stored in LDs. To confirm this possibility, we stained the cells with BODIPY for localization of LDs.
We then treated the PhDY-Chol-labeled M12 cells with a cholesterol-mobilizing drug, HPβCD^40. This drug is known to mediate lysosomal escape of cholesterol, and promote storage of excess cholesterol into LDs^41. […] These areas likely represent PhDY-cholesteryl ester stored in LDs. To confirm this possibility, we stained the cells with BODIPY for localization of LDs.
HPβCD was used as a drug treatment of NP-C disease. M12 cells were incubated with PhDY-Chol for 16 h as described above. […]
as §2

Take `CC1=CC(C)=[N+]2C1=C(CC[C@@H](C)[C@H]1CC[C@H]3[C@@H]4CC=C5C[C@@H](O)CC[C@]5(C)[C@H]4CC[C@]13C)c1c(C)cc(C)n1[B-]2(F)F` [BODIPY-cholesterol, reference compound]: the “amount of probe incorporated into LDs after ACAT-1 inhibition” value on ACAT-1 (ACAT-1 inhibited vs control) is recorded as “did not change; also recorded: no difference between the two groups”. The “photostability / photo-bleaching of signal” value in data set [1] is on record as “rapid photo-bleaching”.

For `C[C@H](CCC#CC#Cc1ccccc1)[C@H]1CC[C@H]2[C@@H]3CC=C4C[C@@H](O)CC[C@]4(C)[C@H]3CC[C@]12C` [PhDY-Chol, phenyl-diyne cholesterol], the “reduction of probe signal found inside LDs after ACAT-1 inhibition” value on ACAT-1 (avasimibe 10 μM 24 h pre-treatment) is 4 times. In addition, the “localization after ACAT-1 inhibition (LysoTracker staining)” value at ACAT-1 (avasimibe treatment) is “partially located in lysosomes”. Also, the cytotoxicity result in the data set with CHO cells [2] (16 h incubation at 50 μM) is “did not cause cytotoxicity”. In addition, in the data set with CHO cells [3], the “late apoptosis and necrosis, propidium iodide staining” value (“late apoptosis and necrosis” for short) is “minimum cell death”. Further, in data set [1], the “photostability / photo-bleaching of signal” value is reported as “No significant change of the SRS signal”.

On to `C#CCC[C@@H](C)[C@H]1CC[C@H]2[C@@H]3CC=C4C[C@@H](O)CC[C@]4(C)[C@H]3CC[C@]12C` [A-Chol, alkyne cholesterol], for which the IC50 at 48 h in data set [4] was found to be 16 µM. Moreover, the “cytotoxicity in MTT cell-viability assay” value in the data set with CHO cells [2] (CHO cells, various concentrations, 48 h) is recorded as “toxic to the cells”. In addition, the “late apoptosis and necrosis” value was “reduced density and extensive apoptosis” with CHO cells [3]; “induces apoptosis and necrosis” in the data set on CHO cells [3] (listed as alkyne-cholesterol).

Turning to `C[C@H](CCC#Cc1ccccc1)[C@H]1CC[C@H]2[C@@H]3CC=C4C[C@@H](O)CC[C@]4(C)[C@H]3CC[C@]12C` [PhA-Chol, phenyl-alkyne cholesterol], the “late apoptosis and necrosis” value with CHO cells [3] was “minimum cell death”.

Take hydroxypropyl-β-cyclodextrin [HPβCD]: the “amount of PhDY-Chol in M12 cells after treatment” value in the data set on M12 cells was “decreased by half”. The “number of PhDY-rich LDs after treatment” value in the data set on M12 cells (BODIPY staining) is recorded as “increased significantly”.
